Source: patent publication US8633208B2, “6-1H-imidazo-quinazoline and quinolines derivatives, new MAO inhibitors and imidazoline receptor ligands” (Rottapharm S.p.A, priority 2008, dated 2014)
Where a name gives a salt, the structure may show the parent alone. Read-outs that look alike come from different tables or passages of the source.

Legend:
I2 Imidazoline Receptor = assay: Binding study towards I2 imidazoline receptor subtype in rat brain ([3H]2-BFI displacement); details: read-out: [3H]2-BFI binding IC50; rat whole brain membranes, [3H]-2BFI 2.5x10-9 M, 90 min at 25° C.
Method: Binding Study Towards I2 Imidazoline Receptor Subtype in Rat Brain.
Male Wistar rats (240-300 g, Harlan, Italy) were sacrificed by decapitation. Whole brains were immediately removed on ice and homogenised in 10 volumes of buffered sucrose (0.32M in 50 mM Tris-HCl, pH 7.4 at 4° C.) using a motor driven Teflon-glass homogeniser. The homogenate was centrifuged at 1000×g for 10 min at 4° C. The resultant supernatants were pooled and centrifuged at 32000×g for 20 min at 4° C. The supernatants were discarded and each pellet suspended in 10 volumes of assay buffer (50 mM Tris-HCl, 1 mM MgCl2, pH 7.4 at 4° C.) and spun at 32000×g for 20 min at 4° C. The pellets were washed twice by repeated centrifugation at 32000×g for 20 min at 4° C. The final pellets were stored at −80° C. until use. Prior to radioligand binding studies, membrane pellets were thawed and washed a further 4 times by re-suspension in 10 volumes of assay buffer (as above) and repeated centrifugation to remove any possible endogenous inhibitors of binding. […] Non specific binding was determined in the presence of 10^-5 M BU224 (Tocris Bioscience). The incubation, in a final volume of 1 ml, was performed in polystyrene multiwell 24, started adding membranes suspension and was carried out for 90 min at 25° C. With the exception of total binding and non specific binding, all concentration points were performed in duplicate. Compounds were tested in 3-5 different concentrations, ranging from 10^-10 M to 10^-5 M final concentration.

CD1 Mice [1] = assay: Tail suspension test in mice; assay type: in vivo; details: for ED50: oral
Method: Tail Suspension Test in Mice
To evaluate novel antidepressants compounds several animal models have been developed. […] The antidepressant effect of representative examples of compounds of formula (I) has been evaluated according to the procedure below. The immobility was induced according to the procedure of Stem et al. (1985). CD1 Mice (Harlan, Italy) were individually suspended 75 cm above the top with an adhesive tape placed 1 cm from the tip of the tail. Immobility duration was recorded for 5 min. Mice were considered immobile only when they hung passively and completely motionless. Compounds were given orally, 30 min before the test at doses ranging between 0.3 and 30 mg/kg. Data collected were expressed as mean percent effect (MPE), which represents the % of inhibition in immobility time between the animals treated with representative compounds of formula (I) and the controls that received only the vehicle.

rats = assay: CFA model of inflammatory pain in rats (Randall-Selitto), potentiation of a low dose of morphine; assay type: in vivo
human recombinant MAO-A = human recombinant MAO-A (Homo sapiens (Human), UniProt P21397); assay: Monoaminooxidase (MAO) activity assay, MAO-Glo luminescent method, MAO-A
Method: Monoaminooxidase (MAO) Activity Assay.
(§1) Inhibitory activity of compounds was evaluated by a homogeneous luminescent method, the MAO-Glo™ Assay (Promega), measuring the monoamine oxidase activity (MAOs) from recombinant source (microsomes from baculovirus infected insect cells, Sigma). Experiments were performed according to the Supplier's procedure, incubating human recombinant MAO-A or MAO-B with a luminogenic substrate, a derivative of beetle luciferin ((4S)-4,5-dihydro-2-(6-hydroxybenzothiazolyl)-4-thiazolecarboxylic acid). […] The MAO-Glo™ Assay was performed in two steps:
(§2) Step 1. The MAO reaction: MAO substrate was incubated with MAO-A or MAO-B (1 μg/sample) in the absence (Total activity) or presence (modulated activity) of test compounds. Total activity was determined in the presence the appropriate solvent. […] Reaction started adding the enzyme solution and samples were incubated for 60 min at room temperature. For negative control reaction, samples of MAO reaction buffer (100 mM Hepes, 5% glycerol, pH 7.5) indeed the test compound were included. For MAO-B activity assay, MAO reaction buffer contain 10% DMSO, in order to increase enzymatic activity. Step 2. […] At the end of incubation 50 μl of Luciferin Detection reagent were added to each well, plate was incubated at room temperature for 20 min, then luminescent signal was detected by luminometer (integration time 0.25-1 sec per well). […] Net MAO-dependent luminescence (net RLU) were calculated by subtracting the average luminescence of the negative control reaction without MAO enzyme. A reduction of net signal in the presence of test compound, with respect to total activity, reflect its effect on MAOs activity. […] A percentage of inhibition for each concentration tested were calculated and the IC50 value was estimated by linear regression.

human recombinant MAO-B = human recombinant MAO-B (Homo sapiens (Human), UniProt P27338); assay: Monoaminooxidase (MAO) activity assay, MAO-Glo luminescent method, MAO-B
Method: Monoaminooxidase (MAO) Activity Assay.
as §1, §2

CD1 Mice [2] = details: commercially available antidepressant drugs, subcutaneous; Millan MJ et al., 2001 JPET, 298(2): 581-591; cited from earlier work
[3] = Table 3, dose 3 mg/Kg OS, 30 min before the test
[4] = Table 3, dose 10 mg/Kg OS, 30 min before the test
[5] = Table 3, dose 30 mg/Kg OS, 30 min before the test
[6] = Table 3, dose yielding 50% reduction of immobility
[7] = read-out: MAO A activity IC50, human recombinant MAO-A, substrate 40 μM, 60 min room temperature

human recombinant MAO-B, sequence (P27338 whole entry): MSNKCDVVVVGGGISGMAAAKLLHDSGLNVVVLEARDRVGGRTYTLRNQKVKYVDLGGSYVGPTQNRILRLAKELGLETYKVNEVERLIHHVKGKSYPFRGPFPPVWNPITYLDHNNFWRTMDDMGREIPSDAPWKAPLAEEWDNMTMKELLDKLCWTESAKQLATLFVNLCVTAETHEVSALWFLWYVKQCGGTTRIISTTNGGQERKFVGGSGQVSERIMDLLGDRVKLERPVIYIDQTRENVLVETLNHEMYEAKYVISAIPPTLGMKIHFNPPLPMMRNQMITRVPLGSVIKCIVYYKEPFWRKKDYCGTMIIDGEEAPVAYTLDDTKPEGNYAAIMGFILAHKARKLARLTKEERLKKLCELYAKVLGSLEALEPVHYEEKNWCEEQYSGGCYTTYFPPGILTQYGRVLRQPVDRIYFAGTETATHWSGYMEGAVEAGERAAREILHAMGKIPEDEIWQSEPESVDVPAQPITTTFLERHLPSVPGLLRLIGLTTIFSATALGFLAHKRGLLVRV
human recombinant MAO-A, sequence (P21397 whole entry): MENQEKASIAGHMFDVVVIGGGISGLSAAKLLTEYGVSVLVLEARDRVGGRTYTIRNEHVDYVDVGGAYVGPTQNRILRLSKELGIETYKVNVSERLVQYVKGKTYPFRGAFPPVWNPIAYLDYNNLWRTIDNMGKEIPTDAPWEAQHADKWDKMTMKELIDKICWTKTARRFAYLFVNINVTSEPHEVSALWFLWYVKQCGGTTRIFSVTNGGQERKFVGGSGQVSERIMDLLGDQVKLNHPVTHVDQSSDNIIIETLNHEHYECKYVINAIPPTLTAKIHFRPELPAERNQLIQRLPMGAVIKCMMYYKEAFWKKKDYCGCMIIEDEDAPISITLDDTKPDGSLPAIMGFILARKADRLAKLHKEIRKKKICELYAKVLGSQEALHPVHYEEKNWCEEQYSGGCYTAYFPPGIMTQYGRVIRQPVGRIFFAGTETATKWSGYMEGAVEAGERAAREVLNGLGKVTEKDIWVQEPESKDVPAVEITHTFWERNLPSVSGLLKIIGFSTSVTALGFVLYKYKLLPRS

For `c1ccc(-c2ncc3cc(-n4ccnc4)ccc3n2)cc1` [Example 1, [6-(1H-imidazol-1-yl)-2-phenyl]quinazoline], the IC50 (I2 Imidazoline Receptor) was 0.68 µM, the “antidepressant-like effect in the presence of Idazoxan” value (CD1 Mice [1]; 0.3 mg/Kg Idazoxan, antagonist of imidazoline (I2) receptors) was “blocked” and the “MPE (% inhibition in immobility time)” value (CD1 Mice [1]; Table 3, dose 0.3 mg/Kg OS, 30 min before the test) was 35%. For the same compound, the “MPE (% inhibition in immobility time)” value (CD1 Mice [1]; Table 3, dose 1 mg/Kg OS, 30 min before the test) was 38%, the “MPE (% inhibition in immobility time)” value (CD1 Mice [1]; [3]) was 40% and the “MPE (% inhibition in immobility time)” value (CD1 Mice [1]; [4]) was 66%. The “MPE (% inhibition in immobility time)” value (CD1 Mice [1]; [5]) was 84%, the ED50 (CD1 Mice [1]; [6]) was 4.8 mg/Kg; OS and the “MPE (% inhibition in immobility time)” value (CD1 Mice [1]; Table 4, Example 1 dose 3 mg/Kg OS, alone or with Idazoxan 0.3 mg/Kg IP) was 43%. For the same compound, the “MPE (% inhibition in immobility time)” value (CD1 Mice [1]; Table 4, Example 1 dose 10 mg/Kg OS, alone or with Idazoxan 0.3 mg/Kg IP) was 54%, the “MPE (% inhibition in immobility time)” value (CD1 Mice [1]; Table 4, Example 1 dose 30 mg/Kg OS, alone or with Idazoxan 0.3 mg/Kg IP) was 97% and the ED50 (CD1 Mice [1]; Table 4) was 5.1 mg/Kg; OS. For the same compound, the “MPE 2 h (difference in pain threshold)” value (rats; rat, in vivo) was 17.19%, the “MPE 3 h (difference in pain threshold)” value (rats; rat, in vivo) was 6.61% and the “MPE 4 h (difference in pain threshold)” value (rats; rat, in vivo) was 2.46%. It also gave an IC50 (human recombinant MAO-A; [7]) of 0.22 µM and an IC50 (human recombinant MAO-B) of over 10 µM.
For `Cc1cn(-c2ccc3nc(-c4ccccc4)ncc3c2)cn1` [Example 4, [6-(4-methyl-1H-imidazol-1-yl)-2-phenyl]quinazoline], the IC50 (I2 Imidazoline Receptor) was 0.48 µM, the melting point was 201.9 to 202.8 °C and the IC50 (human recombinant MAO-A; [7]) was 2.06 µM. For the same compound, the IC50 (human recombinant MAO-B) was over 10 µM.
With `CN1CC[C@]23c4c5ccc(O)c4O[C@H]2[C@@H](O)C=C[C@H]3[C@H]1C5` [Morphine, reference compound] the “MPE 2 h (difference in pain threshold)” value (rats; 2 h, Example 1 1.5 mg/Kg OS and/or Morphine 0.5 mg/Kg SC) was 42.88%, the “MPE 3 h (difference in pain threshold)” value (rats; 3 h, Example 1 1.5 mg/Kg OS and/or Morphine 0.5 mg/Kg SC) was 30.49% and the “MPE 4 h (difference in pain threshold)” value (rats; 4 h, Example 1 1.5 mg/Kg OS and/or Morphine 0.5 mg/Kg SC) was 15.04%.
For `c1cn(-c2ccc3nc(-c4ccc5c(c4)OCO5)ccc3c2)cn1` [Example 16, [6-(1H-imidazol-1-yl)-2-(1,3-benzodioxol-5-yl)]quinoline dihydrochloride], the IC50 (I2 Imidazoline Receptor) was 0.19 µM, the “MPE (% inhibition in immobility time)” value (CD1 Mice [1]; [3]) was 41% and the “MPE (% inhibition in immobility time)” value (CD1 Mice [1]; [4]) was 66%. The “MPE (% inhibition in immobility time)” value (CD1 Mice [1]; [5]) was 100%, the ED50 (CD1 Mice [1]; [6]) was 4.6 mg/Kg; OS and the IC50 (human recombinant MAO-A) was over 10 µM. It also gave an IC50 (human recombinant MAO-B) of over 10 µM.
With `Fc1ccc(-c2ccc3cc(-n4ccnc4)ccc3n2)cc1` [Example 21, [6-(1H-imidazol-1-yl)-2-(4-fluorophenyl)]quinoline dihydrochloride] the IC50 (I2 Imidazoline Receptor) was 0.24 µM, the “MPE (% inhibition in immobility time)” value (CD1 Mice [1]; [3]) was 36% and the “MPE (% inhibition in immobility time)” value (CD1 Mice [1]; [4]) was 72%. For the same compound, the “MPE (% inhibition in immobility time)” value (CD1 Mice [1]; [5]) was 89%, the ED50 (CD1 Mice [1]; [6]) was 4.9 mg/Kg; OS and the IC50 (human recombinant MAO-A) was over 10 µM. It also gave an IC50 (human recombinant MAO-B) of over 10 µM.
In the case of `CCOc1ccccc1OC(c1ccccc1)C1CNCCO1` (stereo not drawn) [Reboxetine], the ED50 (CD1 Mice [2]) is listed as 4.2 mg/Kg; SC.
Compound `COc1ccccc1-c1ncc2cc(-n3cnc(C)c3)ccc2n1` [Example 7, [6-(4-methyl-1H-imidazol-1-yl)-2-(2-methoxyphenyl)]quinazoline] has an IC50 (I2 Imidazoline Receptor) of 2.18 µM, a melting point of 160.6 to 162 °C and an IC50 (human recombinant MAO-A) of over 10 µM. For the same compound, the IC50 (human recombinant MAO-B) was over 10 µM.
Work on `c1ccc2c(c1)OCC(C1=NCCN1)O2` (stereo not drawn) [Idazoxan, reference compound] yielded an IC50 (I2 Imidazoline Receptor) of 0.011 µM, an IC50 (human recombinant MAO-A) of over 1 µM and an IC50 (human recombinant MAO-B) of over 1 µM.
`COc1ccccc1-c1ccc2cc(-n3ccnc3)ccc2n1` [Example 19, [6-(1H-imidazol-1-yl)-2-(2-methoxyphenyl)]quinoline dihydrochloride] gave an IC50 (I2 Imidazoline Receptor) of 3.16 µM, an IC50 (human recombinant MAO-A) of over 10 µM and an IC50 (human recombinant MAO-B) of over 10 µM.
In the case of `CN(C)c1ccc(-c2ccc3cc(-n4ccnc4)ccc3n2)cc1` [Example 22, [6-(1H-imidazol-1-yl)-2-(4-dimethylaminophenyl)]quinoline trihydrochloride], the IC50 (I2 Imidazoline Receptor) is reported as 3.78 µM, the IC50 (human recombinant MAO-A; [7]) is reported as 2.09 µM and the IC50 (human recombinant MAO-B; read-out: MAO B activity IC50, human recombinant MAO-B, substrate 4 μM, 60 min room temperature) is reported as 1.49 µM.
Compound `c1cn(-c2ccc3nc(-c4ccc5occc5c4)ncc3c2)cn1` [Example 14, [6-(1H-imidazol-1-yl)-2-(benzofuran-5-yl)-]quinazoline dihydrochloride trihydrate] has an IC50 (I2 Imidazoline Receptor) of 0.61 µM, an IC50 (human recombinant MAO-A; [7]) of 0.35 µM and an IC50 (human recombinant MAO-B) of over 10 µM.
Compound `c1cn(-c2ccc3nc(-c4ccoc4)ccc3c2)cn1` [Example 20, [6-(1H-imidazol-1-yl)-2-(3-furyl)]quinoline dihydrochloride] has an IC50 (I2 Imidazoline Receptor) of 1.19 µM, an IC50 (human recombinant MAO-A; [7]) of 0.25 µM and an IC50 (human recombinant MAO-B) of over 10 µM.
For `CN(C)CCCC1(c2ccc(F)cc2)OCc2cc(C#N)ccc21` (stereo not drawn) [Citalopram], the ED50 (CD1 Mice [2]) is listed as 8.8 mg/Kg; SC.
Compound `FC(F)(F)Oc1ccc(-c2ccc3cc(-n4ccnc4)ccc3n2)cc1` [Example 23, [6-(1H-imidazol-1-yl)-2-(4-trifluoromethoxyphenyl)]quinoline dihydrochloride] has an IC50 (I2 Imidazoline Receptor) of 0.82 µM, an IC50 (human recombinant MAO-A; [7]) of 0.15 µM and an IC50 (human recombinant MAO-B) of over 10 µM.
In the case of `Cc1nccn1-c1ccc2nc(-c3ccccc3)ncc2c1` [Example 2, [6-(2-methyl-1H-imidazol-1-yl)-2-phenyl]quinazoline], the IC50 (I2 Imidazoline Receptor) is reported as 2.4 µM, the “MPE (% inhibition in immobility time)” value (CD1 Mice [1]; [3]) is reported as 17% and the “MPE (% inhibition in immobility time)” value (CD1 Mice [1]; [4]) is reported as 77%. For the same compound, the “MPE (% inhibition in immobility time)” value (CD1 Mice [1]; [5]) was 83%, the ED50 (CD1 Mice [1]; [6]) was 7.1 mg/Kg; OS and the melting point was 198.3 to 200.3 °C. It also gave an IC50 (human recombinant MAO-A) of over 10 µM and an IC50 (human recombinant MAO-B) of over 10 µM.
With `Cc1cncn1-c1ccc2nc(-c3ccccc3)ncc2c1` [Example 5, [6-(5-methyl-1H-imidazol-1-yl)-2-phenyl]quinazoline] the IC50 (I2 Imidazoline Receptor) was 1.18 µM, the “MPE (% inhibition in immobility time)” value (CD1 Mice [1]; [3]) was 41% and the “MPE (% inhibition in immobility time)” value (CD1 Mice [1]; [4]) was 61%. For the same compound, the “MPE (% inhibition in immobility time)” value (CD1 Mice [1]; [5]) was 91%, the ED50 (CD1 Mice [1]; [6]) was 4.9 mg/Kg; OS and the IC50 (human recombinant MAO-A) was over 10 µM. It also gave an IC50 (human recombinant MAO-B) of over 10 µM.
For `COc1ccc(C(CN(C)C)C2(O)CCCCC2)cc1` (stereo not drawn) [Venlafaxine], the ED50 (CD1 Mice [2]) is given as 11.7 mg/Kg; SC.
